This is an account of results in publication PMC10846744, “Cathelicidin peptide analogues inhibit EV71 infection through blocking viral entry and uncoating” (PLOS Pathogens, 2024).

What all share (assay type): cell-based, enterovirus 71 (EV71)
For one test, the system named is EV71 virus. Put plainly: EV71 infection inhibition on RD cells (VP1 immunoblot, viral titer, cell viability/CPE). The settings on record: for inhibition of EV71 viral VP1 protein expression: EV71 MOI = 1 pre-incubated with peptide 1 hr at room temperature, RD cells, immunoblotting, 24 h.p.i. As to the method: Synthetic peptides were purchased from Bioyears Co. Ltd. (Wuhan, China) with purity of more than 95% and dissolved in PBS. To test their inhibitory effects, the EV71 virus (MOI = 1) was incubated with the indicated amount of peptide at room temperature for 1 hr before the mixture was added to RD cells and maintained throughout the experiment. Cell viability, viral titer, or viral protein expression was determined 24 h.p.i. For the time-of-addition experiment, viruses were either pre-incubated with peptides (for the -2 and -1 time points), the mixture was added to the cells simultaneously (for 0 time point), or peptides were added after virus infection (for 1, 2, 4 and 7 h time points) and the virus/peptide was maintained in the culture before cell viability, viral titer, or viral protein expression was determined 24 h.p.i. The TCID50 of the virus was calculated according to the Reed-Muench method.
Cells were treated as described and harvested with LDS sample buffer (Thermo Fisher Scientific). After denaturation, samples were separated on 10% SDS-PAGE gel and then transferred to a polyvinylidene fluoride (PVDF) membrane. The proteins were blocked using 5% skimmed milk and probed with the corresponding antibodies. The following antibodies were used in this study: EV71 VP1 polyclonal antibody (GeneTex, Taiwan, China), β-Actin antibody (Zen BioScience, Chengdu, China), pan-Enterovirus Monoclonal antibody (Thermo Fisher Scientific). The chemiluminescence signals were visualized using ECL Advance reagents (Mishubio, China), and the images were acquired using the FUSION Solo S Imaging System (VILBER, France).
Cell viability assays were carried out using the Cell Titer-Glo Luminescent Cell Viability Assay Kit (Promega, Madison, WI) following the manufacturer’s instructions. Luminescence signals were measured using a BioTek Neo2 microplate reader.
For crystal violet staining, cells treated as indicated were first washed once with PBS, followed by fixation with 4% PFA. Cells were then stained with 0.5% crystal violet for 2 hrs before they were extensively washed with water.
(A western blot detects proteins with antibodies after separation by electrophoresis.)

The subject of the next test is EV71 subgenomic replicon. The test can be described thus: EV71 subgenomic replicon (SGR) Renilla luciferase assay. The settings on record: RD cells transfected with SGR RNA, 1.5 μM peptide for 3 or 6 hrs. As to the method: Fig 3 LL-18 and FF-18 inhibit viral attachment and internalization. (A) EV71 virus (MOI = 1) was pre-incubated with 1.5 μM LL-18, FF-18 or 12 μM 12s before they were used to incubate with RD cells at 4°C for 1 hr. Viral RNA was then determined with q-RT-PCR. Values are normalized to vehicle treated cells. ***, P<0.001. (B) EV71 virus (MOI = 1) was pre-incubated with 1.5 μM LL-18, FF-18 or 12 μM 12s before they were used to incubate with RD cells at 4°C for 1 hr followed by 37°C incubation for 1 hr. Viral RNA was then determined with q-RT-PCR. Values are normalized to vehicle treated cells. ***, P<0.001. (C) Diagram of EV71 subgenomic replicon. Part of the structural genes was replaced with a Renilla luciferase reporter gene. (D) RD cells transfected with EV71 SGR RNA were treated with 1.5 μM LL-18 or FF-18 for 3 hrs (left panel) or 6 hrs (right panel) before luciferase activity was measured. ns, not significant. […]
Full-length NanoLuc-EV71 reporter viruses and subgenomic EV71 replicon (SGR) were described previously. […] Nano luciferase and Renilla luciferase were measured with Nano-Glo or Renilla luciferase assay system from Promega (Madison, WI). Luminescence signals were measured using a BioTek Neo2 microplate reader.
(In general: In antiviral work, replicon cells carry a viral genome segment that copies itself.)

The test system of test [1] is NanoLuc-EV71 reporter virus / EV71 virus. Put plainly: NanoLuc-EV71 reporter virus luciferase and viral RNA time course. Particulars: 1.5 μM peptide pre-incubated with virus 1 hr, RD cells, luciferase at time points. As to the method: Fig 2 LL-18 and FF-18 inhibit EV71 infection at the early stages of infection. (A-B) NanoLuc-EV71 reporter virus (A) or EV71 virus (MOI = 1, B) was pre-incubated with 1.5 μM LL-18 or FF-18 for 1 hr before they were used to infect RD cells. Luciferase (A) or viral RNA (B) was determined at indicated time points. Viral RNAs were normalized to mock treated cells at 1 h.p.i. ***, P<0.001. (C-E) EV71 virus (MOI = 1) was either pre-incubated with 1.5 μM LL-18 before infection (-2 and -1 time points), added simultaneously with LL-18 (0 time point) or LL-18 was added at indicated time points post-infection (1, 2, 4, 7 time points) and viral VP1 expression (C), cell viability (D), or viral titer (E) was determined 24 h.p.i. ns, not significant; **, P<0.01; ***, P<0.001. (F-H) EV71 virus (MOI = 1) was either pre-incubated with 1.5 μM FF-18 before infection (-2 and -1 time points), added simultaneously with FF-18 (0 time point) or FF-18 was added at indicated time points post-infection (1, 2, 4, 7 time points) and viral VP1 expression (F), cell viability (G), or viral titer (H) was determined 24 h.p.i. ns, not significant; **, P<0.01; ***, P<0.001.
Full-length NanoLuc-EV71 reporter viruses and subgenomic EV71 replicon (SGR) were described previously. […] Nano luciferase and Renilla luciferase were measured with Nano-Glo or Renilla luciferase assay system from Promega (Madison, WI). […]

Where no end group is shown, it is not given here.

As to FRKSKEKIGKFFKRIVQRIFDFLRNLV [FF-18], in the test with EV71 virus, the “inhibition of EV71 infection (overall conclusion)” value is listed as “could effectively inhibit EV71 infection”, the “reduction of EV71 viral titer in supernatant” value is on record as “reduce the viral titers dose-dependently” and the “inhibition of EV71 viral VP1 protein expression” value is “inhibit EV71 viral protein expression in a dose-dependent manner”. Also, the “inhibition of EV71 SGR luciferase (viral translation or replication)” value in the test with EV71 subgenomic replicon was “no inhibition”. Besides, the “inhibition of NanoLuc expression of NanoLuc-EV71 reporter virus” value in test [1] was “could inhibit the expression of NanoLuc as early as 4 hrs post-infection”.

Take FRKSKEKIGKLFKRIVQRILDFLRNLV [LL-18]: in the test with EV71 virus, the “inhibition of EV71 infection (overall conclusion)” value is given as “could effectively inhibit EV71 infection”, the “reduction of EV71 viral titer in supernatant” value is “reduce the viral titers dose-dependently” and the “inhibition of EV71 viral VP1 protein expression” value was “inhibit EV71 viral protein expression in a dose-dependent manner”. In the test on EV71 subgenomic replicon, the “inhibition of EV71 SGR luciferase (viral translation or replication)” value is “no inhibition”. In addition, the “inhibition of NanoLuc expression of NanoLuc-EV71 reporter virus” value in test [1] is given as “could inhibit the expression of NanoLuc as early as 4 hrs post-infection”.
